# From PMC4638363, “Linear Interaction Energy Based Prediction of Cytochrome P450 1A2 Binding Affinities with Reliability Estimation” (PLoS ONE, 2015)
# Like-named read-outs stand apart in the source and are kept apart here.
# What was measured:
# human CYP 1A2 [1] = target: T1, human CYP 1A2 (Homo sapiens, UniProt P05177); conditions: for ΔG bind (inhouse): human, 10 min, pH 7.4
# T1 sequence (P05177 1-516): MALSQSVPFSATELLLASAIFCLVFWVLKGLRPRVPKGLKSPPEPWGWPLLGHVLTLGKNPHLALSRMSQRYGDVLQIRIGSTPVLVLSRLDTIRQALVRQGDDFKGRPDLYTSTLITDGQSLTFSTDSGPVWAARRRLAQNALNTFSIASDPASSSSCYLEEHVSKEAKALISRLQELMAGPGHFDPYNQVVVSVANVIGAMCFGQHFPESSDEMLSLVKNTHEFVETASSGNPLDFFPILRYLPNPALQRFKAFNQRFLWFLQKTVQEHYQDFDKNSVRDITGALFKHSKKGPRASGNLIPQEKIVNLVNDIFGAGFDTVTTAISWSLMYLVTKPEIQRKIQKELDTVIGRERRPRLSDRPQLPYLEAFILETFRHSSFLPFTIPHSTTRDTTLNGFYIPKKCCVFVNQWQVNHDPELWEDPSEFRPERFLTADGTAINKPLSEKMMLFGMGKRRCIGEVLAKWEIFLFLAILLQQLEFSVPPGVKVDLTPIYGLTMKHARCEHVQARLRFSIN
# CYP 1A2 [2] = assay: Source 1: Bayer HealthCare screen, phenacetin as substrate probe on pooled human liver microsomes; conditions: for ΔG bind (lit): from literature IC50, Source 1 (Ref. 57); for ΔGbind^Obs: from literature IC50, Source 1
# human CYP 1A2 [3] = target: T1, human CYP 1A2
# CYP 1A2 [4] = conditions: cited from earlier work
# CYP 1A2 [5] = conditions: cited from earlier work; remark: listed apart in the source
# human CYP 1A2 [6] = target: T1, human CYP 1A2; assay: in-house CYP 1A2 inhibition assay with 7-methoxyresorufin as substrate (resorufin fluorescence); conditions: for ΔΔG bind: difference in ΔG bind between literature and in-house determined values; for ΔG bind (inhouse): from in-house IC50 via Cheng-Prusoff and RTln(Ki)
# CYP 1A2 [7] = conditions: human
# CYP 1A2 [8] = conditions: for ΔG bind (lit): from literature IC50, Source 2 (Ref. 58); for ΔGbind^Obs: training set, from literature IC50, Source 2
# CYP 1A2 [9] = conditions: cited from earlier work; remark: listed apart in the source
# recombinant CYP 1A2 [10] = conditions: recombinant enzyme; cited from earlier work
# recombinant CYP 1A2 [11] = conditions: human
# [12] = read-out: IC 50 (lit), Source 1, pooled human liver microsomes, phenacetin probe
# [13] = Table A, Source 1, ref Bayer HealthCare databases for CYP inhibition (eTOX)
# [14] = read-out: IC 50 (lit), Source 2, recombinant CYPs, phenacetin O-deethylation
# [15] = Table A, Source 2, ref Cohen et al., Drug Metab. Dispos. 2003
smiles,measurement,setting,value
COc1ccc2nc3ccc(=O)cc-3oc2c1 [7-Methoxyresorufin],K m,human CYP 1A2 [1],2.5 µM
"Cc1cccc(Nc2ccccc2C(=O)O)c1C [Compound 1, Mefenamic Acid]",ΔG bind (lit),CYP 1A2 [2],-7.1 kcal/mol
same,ΔGbind^Obs,CYP 1A2 [2]; training set,-7.1 kcal/mol
same,Residual (ΔGbind^Obs—ΔGbind^Calc),human CYP 1A2 [3]; training set,1.03 kcal/mol
same,Reported inhibition mechanism,CYP 1A2 [4]; literature,Competitive^60
same,IC50,CYP 1A2 [5]; [12],14 µM
same,IC50,human CYP 1A2 [6],19 ± 7 µM
same,ΔΔG bind,human CYP 1A2 [6],-0.19 kcal/mol
same,ΔG bind (inhouse),human CYP 1A2 [6],-6.91 ± 0.239 kcal/mol
"Nc1c2c(nc3ccccc13)CCCC2 [Compound 2, Tacrine]",ΔG bind (lit),CYP 1A2 [7],-7.67 kcal/mol
same,ΔGbind^Obs,CYP 1A2 [7],-7.7 kcal/mol
same,ΔΔG bind,human CYP 1A2 [1],0.502 kcal/mol
same,ΔG bind (inhouse),human CYP 1A2 [1],-8.17 ± 0.287 kcal/mol
same,Residual (ΔGbind^Obs—ΔGbind^Calc),human CYP 1A2 [3],-0.669 kcal/mol
same,Reported inhibition mechanism,CYP 1A2 [4],Substrate^61
same,IC50,CYP 1A2 [5]; microsomes,5.2 µM
same,IC50,human CYP 1A2 [6],2.3 ± 1 µM
"COc1ccccc1OCCNCC(O)COc1cccc2[nH]c3ccccc3c12 (centres unmarked) [Compound 3, Carvedilol]",ΔG bind (lit),CYP 1A2 [2],-7.6 kcal/mol
same,Reported inhibition mechanism,CYP 1A2 [4]; literature,Substrate^62
same,IC50,CYP 1A2 [5]; [13],5.1 µM
same,IC50,CYP 1A2 [5]; [12],5.91 µM
same,IC50,human CYP 1A2 [6],5 ± 0.2 µM
same,ΔΔG bind,human CYP 1A2 [6],0.096 kcal/mol
same,ΔG bind (inhouse),human CYP 1A2 [6],-7.7 ± 0.024 kcal/mol
"Cc1c2ccncc2c(C)c2c1[nH]c1ccccc12 [Compound 5, Ellipticine]",ΔG bind (lit),CYP 1A2 [8],-9.99 ± 0.048 kcal/mol
same,IC50,CYP 1A2 [9]; [14],0.11 ± 0.01 µM
same,IC50,human CYP 1A2 [6],0.007 ± 0.002 µM
same,ΔΔG bind,human CYP 1A2 [6],1.65 kcal/mol
same,ΔG bind (inhouse),human CYP 1A2 [6],-11.6 ± 0.17 kcal/mol
"CCOc1ccc(NC(C)=O)cc1 [Compound 6, Phenacetin]",ΔG bind (lit),CYP 1A2 [8],[…]
same,Reported inhibition mechanism,CYP 1A2 [4]; literature,Substrate^64
"O=c1cc(-c2ccccc2)oc2c1ccc1ccccc12 [Compound 7, alpha-Naphthoflavone]",ΔG bind (lit),CYP 1A2 [8],[…]
same,Reported inhibition mechanism,CYP 1A2 [4]; literature,Competitive/uncompetitive^65
"Clc1ccccc1CN1CCc2sccc2C1 [Compound 8, Ticlopidine]",ΔG bind (lit),CYP 1A2 [8],[…]
same,Reported inhibition mechanism,CYP 1A2 [4]; literature,Competitive^66
"Oc1ccc2ccccc2c1 [Compound 10, 2-naphthol]",ΔΔG bind,human CYP 1A2 [1],0.813 kcal/mol
same,ΔG bind (inhouse),human CYP 1A2 [1],-7.79 ± 0.17 kcal/mol
same,IC50,recombinant CYP 1A2 [10],17 ± 1.5 µM
same,"Residual (ΔGbind^Obs–ΔG bind ^Calc), error in prediction",human CYP 1A2 [3],-1.55 kcal/mol
same,ΔG bind (lit),recombinant CYP 1A2 [11],-6.96 ± 0.048 kcal/mol
same,ΔGbind^Obs,recombinant CYP 1A2 [11],-6.96 kcal/mol
same,IC50,human CYP 1A2 [6],4.4 ± 1.2 µM
"O=c1c(O)c(-c2ccc(O)c(O)c2)oc2cc(O)cc(O)c12 [Compound 14, Quercetin]",ΔGbind^Obs,CYP 1A2 [2]; test set,[…]
same,Reported inhibition mechanism,CYP 1A2 [4]; literature,Competitive^67
"O=C(O)c1cccnc1Nc1cccc(C(F)(F)F)c1 [Compound 16, Niflumic Acid]",ΔGbind^Obs,CYP 1A2 [2]; training set,-7.22 kcal/mol
same,Residual (ΔGbind^Obs—ΔGbind^Calc),human CYP 1A2 [3]; training set,0.693 kcal/mol
same,IC50,CYP 1A2 [5]; [13],11.6 µM
"O=C1C[C@@H](c2ccc(O)cc2)Oc2cc(O)cc(O)c21 [Compound 17, Naringenin]",ΔGbind^Obs,CYP 1A2 [2]; test set,-7.17 kcal/mol
same,Reported inhibition mechanism,CYP 1A2 [4]; literature,Substrate^68
same,IC50,CYP 1A2 [5]; [13],12.3 µM
"C[C@]12CC[C@@H]3c4cc(F)c(O)cc4CC[C@H]3[C@@H]1CC[C@@H]2O [Compound 20, 2-Fluoroestradiol]",ΔGbind^Obs,CYP 1A2 [2]; test set,-6.72 kcal/mol
same,"Residual (ΔGbind^Obs–ΔG bind ^Calc), error in prediction",human CYP 1A2 [3]; test set,1.67 kcal/mol
same,IC50,CYP 1A2 [5]; [13],26.8 µM
"Cc1cccc(C)c1OCC(C)N (centres unmarked) [Compound 23, Mexiletine]",ΔGbind^Obs,CYP 1A2 [8],-8.32 kcal/mol
same,Residual (ΔGbind^Obs—ΔGbind^Calc),human CYP 1A2 [3]; training set,-1.86 kcal/mol
same,IC50,CYP 1A2 [9]; [15],1.84 µM
same,Reported inhibition mechanism,CYP 1A2 [4]; literature,Competitive^70
"Cc1nc2c([nH]1)c(=O)n(C)c(=O)n2Cc1ccco1 [Compound 24, Furafylline]",IC50,CYP 1A2 [9]; [15],[…]
same,Reported inhibition mechanism,CYP 1A2 [4]; literature,Mechanism-based^71
"CC(C)NCC(O)COc1cccc2ccccc12 (centres unmarked) [Compound 25, Propranolol]",ΔGbind^Obs,CYP 1A2 [8],-7.86 kcal/mol
same,Residual (ΔGbind^Obs—ΔGbind^Calc),human CYP 1A2 [3]; training set,-0.263 kcal/mol
same,IC50,CYP 1A2 [9]; [15],3.84 µM
same,Reported inhibition mechanism,CYP 1A2 [4]; literature,Substrate^72
